From patent publication US10308615B2, “Heterocyclic compounds as inhibitors of Vanin-1 enzyme” (Pfizer Inc., priority 2015, dated 2019)

Key:
[1] = target: T1, human vanin-1 (Homo sapiens (Human), UniProt O95497); assay: Human Vanin-1 Enzyme Assay 3; format: biochemical; conditions: 2 nM human vanin-1, 10 uM substrate, 15 min
Method: Human Vanin-1 Enzyme Assay 3.
(§1) The in vitro assay measures enzymatic cleavage of the fluorescently-labeled vanin substrate, pantetheine 7-amino-4-trifluoromethylcoumarin, by human vanin-1.
(§2) The vanin-1 protein was prepared in-house from a construct expressing the extracellular domain of human vanin-1 (GenBank ID NM_004666) preceded N-terminally by the honey bee melittin signal peptide, a GSG linker sequence, a His6X tag and a FLAG tag. The secreted, soluble enzyme was purified from the conditioned medium from a CHO cell line stably expressing the resulting protein. Enzyme purification was performed through sequential Ni NTA and size-exclusion chromatography steps.
On the day of the assay, dose response plates were prepared by diluting the inhibitors in DMSO at compound concentration 100-fold the final in-assay concentration. Concentration series were prepared by serially diluting in DMSO in a two-fold series for a total of 11 data points. Intermediate compound plates containing compound in 10% DMSO were then created by diluting the compounds 10-fold in assay buffer consisting of 50 mM Tris-HCl pH=8.0, 50 mM KCl, 0.005% Brij-35 and 1.5 mM cysteamine. To begin the assay 3 μL were transferred from the intermediate compound plate to the assay plate.
A working solution of human vanin-1 was prepared by diluting the enzyme stock to 2.5 nM in assay buffer. Next, 24 μL of the vanin-1 working solution were transferred to the assay plate. The enzyme reaction was then initiated by the addition of 3 μL of 100 μM pantetheine 7-amino-4-trifluoromethylcoumarin prepared in 5 uM acetic acid. The final concentrations in the assay were 2 nM human vanin-1 and 10 uM substrate. The final concentration of DMSO was 1%. The assay plates were incubated at room temperature for 15 minutes and before they were read on a Tecan Safire using a 405 nm excitation wavelength and a 505 nm emission wavelength for detection.

[2] = target: T1, human vanin-1; assay: Human Vanin-1 Enzyme Assay 1; format: biochemical; conditions: 25 pM human vanin-1, 50 uM pantetheine 7-amino-4-trifluoromethylcoumarin, 30 min preincubation, 60 min
Method: Human Vanin-1 Enzyme Assay 1.
as §1, §2
The test inhibitors were solubilized in DMSO to a stock concentration of 30 mM. On the day of the assay, dose response plates were prepared by diluting the inhibitors in DMSO at compound concentration 200-fold the final in-assay concentration. Intermediate concentrations were prepared by diluting in DMSO in a four-fold series for a total of 11 data points.
To prepare a working solution of human vanin-1, the enzyme was diluted to 33.3 pM in the assay buffer consisting of 50 mM Tris-HCl pH=8.0, 50 mM KCl, 0.005% Brij-35 and […] cysteamine. To begin the assay 100 nL was transferred from the compound plate to the assay plate. Next, 15 μL of the vanin-1 working solution were transferred to the assay plate. The inhibitor and enzyme were incubated at room temperature for 30 minutes. The enzyme reaction was then initiated by the addition of 5 μL of 200 μM pantetheine 7-amino-4-trifluoromethylcoumarin prepared in assay buffer. The final concentrations in the assay were 25 pM human vanin-1 and 50 uM substrate. The final concentration of DMSO was 0.5%. The assay plates were incubated for 60 minutes and before they were read on a Perkin Elmer EnVision Model 2103 using a 405 nm excitation wavelength and a 510 nm emission wavelength for detection.

T1 sequence (O95497 22-491): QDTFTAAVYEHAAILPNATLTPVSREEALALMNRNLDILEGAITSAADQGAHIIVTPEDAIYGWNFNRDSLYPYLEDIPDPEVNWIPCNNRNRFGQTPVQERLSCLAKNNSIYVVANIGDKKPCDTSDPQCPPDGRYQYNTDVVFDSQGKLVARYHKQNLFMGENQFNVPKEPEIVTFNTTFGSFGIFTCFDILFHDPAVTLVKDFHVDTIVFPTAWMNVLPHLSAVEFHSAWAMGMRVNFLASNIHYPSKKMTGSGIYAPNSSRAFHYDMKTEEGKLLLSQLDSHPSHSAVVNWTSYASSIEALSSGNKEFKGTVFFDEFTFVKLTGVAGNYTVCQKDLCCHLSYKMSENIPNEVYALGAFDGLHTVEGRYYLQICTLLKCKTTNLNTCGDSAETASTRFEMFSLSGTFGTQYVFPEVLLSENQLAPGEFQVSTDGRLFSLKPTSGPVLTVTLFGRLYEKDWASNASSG

Row | Compound | IC50 [1] [nM] | IC50 [2] [nM]
1 | O=C(c1cnc(NCc2ccc(F)cc2)nc1)c1cccc(Cl)c1 [Example 36, (3-chlorophenyl){2-[(4-fluorobenzyl)amino]pyrimidin-5-yl}methanone] | 31 | 
2 | N#Cc1ccc(CNc2ncc(C(=O)c3ccc(C(F)(F)F)cc3)cn2)cc1 [Example 50, 4-[({5-[4-(trifluoromethyl)benzoyl]pyrimidin-2-yl}amino)methyl] benzonitrile] | 204 | 
3 | O=C(c1ccc(C(F)(F)F)cc1)c1cnc(NCc2cccnc2)nc1 [Example 51, {2-[(pyridin-3-ylmethyl)amino]pyrimidin-5-yl}[4-(trifluoromethyl)phenyl]methanone] | 44.9 | 
4 | O=C(c1ccc(Cl)cc1)c1cnc(NCc2ccc(F)cc2)nc1 [Example 52, (4-chlorophenyl){2-[(4-fluorobenzyl)amino]pyrimidin-5-yl}methanone] | 170 | 
5 | COc1ccc(CNc2ncc(C(=O)c3ccc(OC)cc3)cn2)cc1 [Example 53, {2-[(4-methoxybenzyl)amino]pyrimidin-5-yl}(4-methoxyphenyl) methanone] | 637 | 
6 | O=C(c1ccc(C(F)(F)F)cc1)c1cnc(NCc2ccc(F)cc2)nc1 [Example 54, {2-[(4-fluorobenzyl)amino]pyrimidin-5-yl}[4-(trifluoromethyl)phenyl]methanone] | 35.4 | 
7 | N#Cc1cc(Cl)cc(C(=O)c2cnc(NC3(c4cncnc4)CC3)nc2)c1 [Example 146, 3-chloro-5-[(2-{[1-(pyrimidin-5-yl)cyclopropyl]amino}pyrimidin-5-yl)carbonyl] benzonitrile] |  | 26
8 | O=C(O)Cc1cccc(C(=O)c2cnc(NC3(c4cncnc4)CC3)nc2)c1 [Example 150, {3-[(2-{[1-(pyrimidin-5-yl)cyclopropyl]amino}pyrimidin-5-yl)carbonyl]phenyl}acetic acid] |  | 23.9
9 | COc1ccc(C(=O)c2cnc(NC3(c4cncnc4)CC3)nc2)cc1C#N [Example 161, 2-methoxy-5-[(2-{[1-(pyrimidin-5-yl)cyclopropyl]amino}pyrimidin-5-yl)carbonyl] benzonitrile] |  | 1850
10 | N#Cc1cccc(C(=O)c2cnc(NCC3CCC(O)CC3)nc2)c1 (centres unmarked) [Example 162, 3-[(2-{[(4-hydroxycyclohexyl)methyl]amino}pyrimidin-5-yl)carbonyl] benzonitrile] |  | 72.6

Continued, values first:

Row | IC50 [1] [nM] | IC50 [2] [nM] | Compound
11 | 2.1 |  | N#Cc1cccc(C(=O)c2cnc(NC3(c4cccnc4)CC3)nc2)c1 [Example 2, 3-[(2-{[1-(pyridin-3-yl)cyclopropyl]amino}pyrimidin-5-yl)carbonyl]benzonitrile]
12 |  | 55.7 | NC(=O)c1cccc(C(=O)c2cnc(NC3(c4cnccn4)CC3)nc2)c1 [Example 147, 3-[(2-{[1-(pyrazin-2-yl)cyclopropyl]amino}pyrimidin-5-yl)carbonyl] benzamide]
13 |  | 260 | O=C(O)c1cccc(C(=O)c2cnc(NC3(c4cncnc4)CC3)nc2)c1 [Example 148, 3-[(2-{[1-(pyrimidin-5-yl)cyclopropyl]amino}pyrimidin-5-yl)carbonyl] benzoic acid]
14 |  | 25.6 | NC(=O)c1cccc(C(=O)c2cnc(NC3(c4cncnc4)CC3)nc2)c1 [Example 149, 3-[(2-{[1-(pyrimidin-5-yl)cyclopropyl]amino}pyrimidin-5-yl)carbonyl] benzamide]
15 |  | 27.8 | N#Cc1cccc(C(=O)c2cnc(NC3(c4cnc(N)cn4)CC3)nc2)c1 [Example 151, 3-[(2-{[1-(5-aminopyrazin-2-yl)cyclopropyl]amino}pyrimidin-5-yl)carbonyl] benzonitrile]
16 |  | 77.7 | N#Cc1cccc(C(=O)c2cnc(NC3(c4ccc(C(N)=O)nc4)CC3)nc2)c1 [Example 152, 5-(1-{[5-(3-cyanobenzoyl)pyrimidin-2-yl]amino}cyclo-propyl)pyridine-2-carboxamide]
17 |  | 307 | N#Cc1cccc(C(=O)c2cnc(NC3(c4ccc(O)nc4)CC3)nc2)c1 [Example 153, 3-[(2-{[1-(6-hydroxypyridin-3-yl)cyclopropyl]amino}pyrimidin-5-yl)carbonyl] benzonitrile]
